For series [1], the system named is IL-2-induced JAK1/JAK3 signal pathway. The series can be described thus: IL-2-induced proliferation of KHYG-1 cells (JAK1/JAK3 signal). The series is classed as cell-based, human. As to conditions: Homo sapiens; KHYG-1 cell proliferation, IL-2 10 ng/mL, 72 hours; read-out: Inhibition activity IC50 on IL-2-induced JAK1/JAK3 signal pathway. In short, it runs like this:
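KHYG-1 NK lymphoma cells were cultured with IL-2 and test compound at various doses for 72 h at 37 °C and 5% CO2, and proliferation was read with alamarBlue fluorescence. Inhibition was normalized to wells without compound or cytokine (0%) and IL-2 wells without compound (100%), and C50 was derived from the dose-inhibition data.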

The subject of series [2] is EPO-induced JAK2 signal pathway. The series can be described thus: EPO-induced proliferation of UT-7 cells (JAK2 signal). The class given is cell-based, human. As to conditions: Homo sapiens, UT7; UT-7 cell proliferation, EPO 10 ng/mL, 72 hours; read-out: Inhibition activity IC50 on EPO-induced JAK2 signal pathway. A digest of the protocol: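 UT-7 cells (15000/well) stimulated with 10 ng/mL human recombinant EPO plus compound at final 0, 100, 1000 or 10000 nM, 72 h at 37° C., 5% CO2. Proliferation by alamarBlue fluorescence (Ex530/Em590); inhibition normalised to no-cytokine/no-compound (0) and EPO-only (100) wells, […] derived from dose-inhibition.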

Series [3] relates to IL-10-induced JAK1/TYK2 signal pathway. The series can be described thus: IL-10-induced JAK1/TYK2 signal pathway STAT3-Luc reporter gene assay in U2OS cells. The note with it: U2OS cells, STAT3-Luc reporter, IL-10 10 ng/mL, read-out: Half inhibition dose (IC50) on IL-10-induced JAK1/TYK2 signal pathway. The series is classed as cell-based, human. In short, it runs like this: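 U2OS cells co-transfected with IL-10R1-EGFP and STAT3-luciferase reporter plasmids; after 24 h, compound added (0–300 nM) for 6 h before 10 ng/mL human IL-10, then 24 h culture. Luciferase signal normalised to GFP for transfection efficiency; IC50 from inhibition rates.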
On the technique in general: In a reporter assay the amount or activity of a reporter protein is the signal.

In the next series the target is TYK2 JH2 domain (Homo sapiens (Human), UniProt P29597). Kind of series: TYK2 JH2 domain FRET tracer assay. The series is classed as binding. As to conditions: FRET 665/615 nm; read-out: Inhibition activity IC50 on TYK2 JH2 domain. The protocol: Compound of the present invention formulated into different concentrations (series 3 times dilutions, started from 60 μM, 11 concentrations in total) was added to 384-well plate, followed by 5 μL of enzyme (i.e., TYK2 JH2 domain), Tb antibody (Cisbio) and tracer. The mixture was incubated at 25° C. for 60 min and left at 4° C. overnight.

Series [4] deals with INF-α-induced pSTAT5 in human PBMC. The series can be described thus: INF-α-induced pSTAT5 in human PBMC (FACS, CD3 positive cells). The series is classed as cell-based. As to conditions: IFN-α 30 ng/ml, read-out: Inhibition activity IC50 on INF-α-induced pSTAT5 in human PBMC. The protocol: hPBMC (available from Shanghai AoNeng Biotechnology Co., Ltd.) was inoculated in 96-well plate, added with compound of the present invention (at concentrations of 40 nM and 200 nM), incubated for 60 min (compound in concentrations of 2 nM, 10 nM respectively during the incubation); added with 30 ng/ml of stimulating factor IFN-α (BioLegend) together with anti-CD3 antibody (Biolegend) and then continued to be incubated for 30 min. After the incubation, each well was added with 1 mL of fixing solution (BD Biosciences), the obtained mixture was incubated for 10 min followed by centrifugation, added with 400 μL/well of Perm III (BD Biosciences), followed by further incubation at 4° C. for 30 min. The obtained mixture was added with mouse anti-human pSTAT5 antibody (Alexa Fluor® 647 Conjugate), followed by incubation at room temperature for 40 min. Fluorescence intensity of pSTAT5 in CD3 positive cells was detected by FACS.
Inhibition rate at individual compound concentration was calculated with the following formula:
Inhibition rate=(MFI value(IFN-α-stimulated control)−MI value(2/10 nM compound treated group)/MFI value(IFN-α-stimulated control)[…]
wherein: MFI value meant fluorescence intensity value; IFN-α-stimulated control meant control group which was operated similarly to the experimental groups but no compound of the present invention was added.

Series [5] is described as follows: In-vivo pharmacokinetic test in mice. As to conditions: mouse, po; BALB/c female mice, gavage 10 mg/kg, plasma. The protocol: LC-MS/MS method is used to determine the drug concentration in the plasma of mice at different times after intragastric administration of the compound of the example. Relevant pharmacokinetic parameters are calculated to study the pharmacokinetic behavior of the compound of the present invention in mice, thereby evaluating the pharmacokinetic characteristics thereof.
Test animal was healthy adult BALB/c female mouse (provided by Chengdu Yaokang Biotechnology Co., Ltd.);
Compound administration and sample collection: compound was administered to BALB/c female mice by gavage (10 mg/kg). At 0.25, 0.5, 1, 2, 4, 6, 8, and 24 hours after administration, 60 μL of whole blood of the mouse fundus venous plexus were collected and centrifuged at 4000 rpm for 10 min to provide plasma.
Sample analysis: 10 μL of mouse plasma samples were respectively added with 290 μL of acetonitrile solution containing internal standard to precipitate proteins. After swirling for 10 min and centrifuging at 4000 rpm for 10 min, 200 μL of supernatant was added to 96-well plate, and analyzed by LC-MS/MS at an injection volume of 1 μL.

The AUC is concentration integrated over time. A low value points to low exposure. A word on the Cmax: it is the maximum level reached in the sampled fluid or tissue.

pIC50: −log10 of the molar value. Read-outs that look alike come from different tables or passages of the source.

Sequence of TYK2 JH2 domain (P29597 589-875): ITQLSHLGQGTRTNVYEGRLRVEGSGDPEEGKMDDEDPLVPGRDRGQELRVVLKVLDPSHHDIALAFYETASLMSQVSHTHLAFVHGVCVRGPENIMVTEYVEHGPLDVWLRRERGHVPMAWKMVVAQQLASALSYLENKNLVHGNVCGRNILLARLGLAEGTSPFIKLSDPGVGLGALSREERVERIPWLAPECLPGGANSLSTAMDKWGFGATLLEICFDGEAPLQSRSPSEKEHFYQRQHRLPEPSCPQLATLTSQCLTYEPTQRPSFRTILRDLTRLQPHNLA

On to `CCONC(=O)c1cnc(Nc2cc(C)nc(C)n2)cc1Nc1ccc(Cl)cc1N(C)S(C)(=O)=O` [Example 115, 4-((4-chloro-2-(N-methylmethanesulfonamido)phenyl)amino)-6-((2,6-dimethylpyrimidin-4-yl)amino)-N-ethoxy nicotinamide], for which the pIC50 in series [1] is less than 5.00; in series [2], less than 5.00; in series [3] (Homo sapiens, U2OS) it was 9.58; on TYK2 JH2 domain it was 10.15.
`CCONC(=O)c1cnc(Nc2cc(C)nc(C)n2)cc1Nc1ccc(C(C)C)cc1N(C)S(C)(=O)=O` [Example 201, 6-((2,6-dimethylpyrimidin-4-yl)amino)-N-ethoxy-4-((4-isopropyl-2-(N-methylmethanesulfonamido)phenyl)amino)nicotinamide]: the pIC50 in series [1] is less than 5.00; in series [2] it was less than 5.00; in series [3] (Homo sapiens), 9.27; on TYK2 JH2 domain it was 10.22.
Regarding `CCONC(=O)c1cnc(Nc2cc(C)nc(C)n2)cc1Nc1cc(F)cc(-c2ncn(C3CC3)n2)c1OC` [Example 204], the pIC50 in series [1] is less than 5.00; in series [2], less than 5.00; in series [3] (Homo sapiens, U2OS) it was 9.27; at TYK2 JH2 domain, 10.22.
Consider `CCONC(=O)c1cnc(Nc2cc(C)nc(C)n2)cc1Nc1cc(F)c(C2CC2)cc1N(C)S(C)(=O)=O` [Example 98], for which the pIC50 in series [1] was less than 5.00; in series [2], less than 5.00; in series [3] (Homo sapiens, U2OS), 8.82; at TYK2 JH2 domain it was 10.05.
Regarding BMS-986165, the values for the pIC50 in series [4] and in series [3] were 8.70 and 8.52, respectively.
With `CCONC(=O)c1cnc(Nc2cc(C)nc(C)n2)cc1Nc1cc(F)cc(-c2cnc(C)cn2)c1OC` [Example 214], the pIC50 in series [1] is less than 5.00; in series [2], less than 5.00; in series [3] (Homo sapiens, U2OS) it was 9.80; at TYK2 JH2 domain, 10.05. The compound also yielded an AUC in series [5] of 41.9 µM·h. The same compound yielded a Cmax in series [5] of 9.21 µM.
`CCONC(=O)c1cnc(Nc2cc(C)nc(C)n2)cc1Nc1cccc(-c2ncc(F)cn2)c1OC` [Example 208, 6-((2,6-dimethylpyrimidin-4-yl)amino)-N-ethoxy-4-((3-(5-fluoropyrimidin-2-yl)-2-methoxyphenyl)amino)nicotinamide]: the pIC50 in series [1] was less than 5.00; in series [2], less than 5.00; in series [3] (Homo sapiens, U2OS), 9.05. The AUC in series [5] was found to be 34.3 µM·h. This compound returned a Cmax in series [5] of 16.4 µM.
On to `CCONC(=O)c1cnc(NC(=O)C2CC2(F)F)cc1Nc1ccc(C2CC2)cc1N(C)S(C)(=O)=O` (stereo not shown) [Example 277, 4-((4-cyclopropyl-2-(N-methylmethanesulfonamido)phenyl)amino)-6-(2,2-difluorocyclopropyl-1-carboxamido)-N-ethoxy nicotinamide], for which the pIC50 is less than 5.00 in series [1]; less than 5.00 in series [2]; 9.33 in series [3] (Homo sapiens, U2OS); 9.92 on TYK2 JH2 domain.
Consider `CCONC(=O)c1cnc(Nc2cc(C)nc(C)n2)cc1Nc1ccc(C2CC2)cc1N(C)S(C)(=O)=O` [Example 21, 4-((4-cyclopropyl-2-(N-methylmethanesulfonamido)phenyl)amino)-6-((2,6-dimethylpyrimidin-4-yl)amino)-N-ethoxy nicotinamide], for which the pIC50 is less than 5.00 in series [1]; less than 5.00 in series [2]; 9.38 in series [3] (Homo sapiens, U2OS); 10.30 at TYK2 JH2 domain.
As for `CCONC(=O)c1cnc(Nc2cc(C)nc(C)n2)cc1Nc1ccc(OCC)cc1N(C)S(C)(=O)=O` [Example 181], the pIC50 in series [1] was less than 5.00; in series [2] it was less than 5.00; in series [3] (Homo sapiens, U2OS) it was 9.25; at TYK2 JH2 domain, 10.10.
Consider `CCONC(=O)c1cnc(Nc2ccnc(C)n2)cc1Nc1cc(F)c(C2CC2)cc1N(C)S(C)(=O)=O` [Example 194, 4-((4-cyclopropyl-5-fluoro-2-(N-methylmethanesulfonamido)phenyl)amino)-N-ethoxy-6-((2-methylpyrimidin-4-yl)amino)nicotinamide], for which the pIC50 in series [1] is less than 5.00; in series [2], less than 5.00; in series [3] (Homo sapiens, U2OS), 9.22; at TYK2 JH2 domain it was 10.10.
For `CCONC(=O)c1cnc(Nc2ccnc(OC)n2)cc1Nc1cc(F)c(Cl)cc1N(C)S(C)(=O)=O` [Example 200, 4-((4-chloro-5-fluoro-2-(N-methylmethanesulfonamido)phenyl)amino)-N-ethoxy-6-((2-methoxypyrimidin-4-yl)amino)nicotinamide], the pIC50 is less than 5.00 in series [1]; less than 5.00 in series [2]; 9.38 in series [3] (Homo sapiens, U2OS); 10.22 on TYK2 JH2 domain.
For the compound `CCONC(=O)c1cnc(Nc2cc(C)nc(C)n2)cc1Nc1cc(F)c(C(C)C)cc1N(C)S(C)(=O)=O` [Example 229, 6-((2,6-dimethylpyrimidin-4-yl)amino)-N-ethoxy-4-((5-fluoro-4-isopropyl-2-(N-methylmethanesulfonamido)phenyl)amino)nicotinamide], the pIC50 in series [1] is less than 5.00; in series [2], less than 5.00; in series [3] (Homo sapiens, U2OS), 9.37; on TYK2 JH2 domain, 10.30.
On to `CCONC(=O)c1cnc(Nc2cc(C)nc(C)n2)cc1Nc1cccc(-c2cnc(C)cn2)c1OC` [Example 213], for which the pIC50 is less than 5.00 in series [1]; less than 5.00 in series [2]; 9.84 in series [3] (Homo sapiens, U2OS). This compound also displayed an AUC in series [5] of 49.3 µM·h. In series [5], this compound came in with a Cmax of 18 µM.
With `CCONC(=O)c1cnc(Nc2cc(C)nc(C)n2)cc1Nc1cc(F)c(Cl)cc1N(C)S(C)(=O)=O` [Example 198, 4-((4-chloro-5-fluoro-2-(N-methylmethanesulfonamido)phenyl)amino)-6-((2,6-dimethylpyrimidin-4-yl)amino)-N-ethoxy nicotinamide], the pIC50 in series [1] is less than 5.00; in series [2], less than 5.00; in series [3] (Homo sapiens, U2OS), 9.19; at TYK2 JH2 domain, 10.10.
`CCONC(=O)c1cnc(Nc2cc(C)nc(C)n2)cc1Nc1cc(F)c(CC)cc1N(C)S(C)(=O)=O` [Example 193, 6-((2,6-dimethylpyrimidin-4-yl)amino)-N-ethoxy-4-((4-ethyl-5-fluoro-2-(N-methylmethanesulfonamido)phenyl)amino)nicotinamide]: the pIC50 in series [1] was less than 5.00; in series [2], less than 5.00; in series [3] (Homo sapiens, U2OS), 9.19; on TYK2 JH2 domain, 10.22.
As to `CCONC(=O)c1cnc(Nc2cc(C)nc(C)n2)cc1Nc1ccc(C)nc1N(C)S(C)(=O)=O` [Example 186], the pIC50 in series [1] was less than 5.00; in series [2] it was less than 5.00; in series [3] (Homo sapiens, U2OS) it was 9.56; on TYK2 JH2 domain it was 10.15.

Source of the values: US20240101548A1, “HYDROXAMATE COMPOUND, PREPARATION METHOD THEREFOR AND APPLICATION THEREOF” (SHENZHEN CHIPSCREEN BIOSCIENCES CO., LTD., priority 2020, published 2024).
